This data set can be described thus: in vitro. The following applies: human, hela cells, % viability.

Data on 78 compounds can be found in article PMC12040169 (PLOS Biology, 2025).

As a reminder, the viability is a read-out of living cells in per cent, often relative to untreated cells. Take `CCC1=NN2C(=N)/C(=C/c3ccc(OC)cc3)C(=O)N=C2S1` [CBK101905]: the viability at 28.5 h, 10 µM was found to be 95.6%.

Take `C#CCNC(=O)CC[C@H]1CNC(=O)[C@@H]2[C@@H](CCN2CC(C)(C)C)N1C` [CBK289035]: the viability at 28.5 h, 10 µM came to 95.1%.

Regarding `CC1(C)CC(=O)C=C(SCC(=O)C(C)(C)C)S1` [CBK005523], the viability at 28.5 h, 10 µM was determined as 106%.

For the compound `CCN(CC)C(=O)c1sccc1NS(=O)(=O)c1ccc(OC)c(OC)c1` [CBK004596], the viability at 28.5 h, 10 µM stood at 94.3%.

In the case of `O=S(=O)(Nc1cccc(-c2nnn[nH]2)c1)c1ccc(F)cc1` [CBK050470], the viability at 28.5 h, 10 µM amounted to 88.5%.

With `O=S(=O)(Nc1ccc2nsnc2c1)c1ccc(F)cc1` [CBK051010], the viability at 28.5 h, 10 µM is 90.2%.

`COc1cncc(C(NC(=O)c2cc(=O)cc(C)o2)[C@H]2C[C@@H](O)C2)c1` (stereo partly drawn) [CBK306833]: the viability at 28.5 h, 10 µM is 97.5%.

On to `C[C@H]1[C@@H]2[C@@H](O)C([C@H](C)C(=O)N3CCCC3)CC[C@@]2(C)CC[C@@H]1NC(=O)c1ccccc1` (stereo partly drawn) [CBK289441], for which the viability at 28.5 h, 10 µM is 106%.

Regarding `COC(=O)c1c(NC(=S)NC(=O)c2c(Br)c(C)nn2C)sc2c1CCCCCC2` [CBK267486], the viability at 28.5 h, 10 µM is 94.5%.

Consider `Cc1ccccc1NC(=O)Cc1nc(CN2CCC3(CCOC3)C2)cs1` (stereo not drawn) [CBK304164], for which the viability at 28.5 h, 10 µM came out at 95.5%.

`O=C(C1CCCC1)N1C[C@@H]2CCCCN(Cc3cccnc3)[C@@H]2C1` [CBK285492]: the viability at 28.5 h, 10 µM is 101%.

Turning to `CN(C)CCCC(=O)N1CCN(c2ncccn2)CC1` [CBK144523], the viability at 28.5 h, 10 µM was determined as 116%.

As for `CCCCN(C)CCNC(=O)c1ccc2c(c1)NC(=O)C(N1CCCCC1)S2` (stereo not drawn) [CBK071799], the viability at 28.5 h, 10 µM came out at 85.1%.

As to `CC(=O)Nc1ccc(OCCO)cc1` [CBK149724], the viability at 28.5 h, 10 µM worked out at 86.6%.

For `COCCN(CCOC)C(=O)Nc1ccc(F)c(NC(C)=O)c1` [CBK307705], the viability at 28.5 h, 10 µM was 98.2%.

With `CN1CCC(C#N)(c2ccccc2F)CC1` [CBK003511], the viability at 28.5 h, 10 µM (bulk resorufin, single well) worked out at 99.3%.

`Cn1c(Cc2ccccc2)nnc1SCCC(=O)Nc1ccccc1` [CBK268874]: the viability at 28.5 h, 10 µM was 91.3%.

Consider `COc1c(C)cccc1C(=O)N1CCC(c2cc3cnccc3[nH]2)CC1` [CBK283460], for which the viability at 28.5 h, 10 µM was determined as 89.9%.

For `COc1ccc(-n2ncc(-c3ccc(C(F)(F)F)cc3)n2)cc1` [CBK112688], the viability at 28.5 h, 10 µM was 92.4%.

Turning to `O=C(Nc1cccnc1)c1cc(S(=O)(=O)N2CCCCC2)c(Cl)cc1Cl` [CBK264567], the viability at 28.5 h, 10 µM came out at 91.9%.

Turning to `O=C(Cc1ccsc1)N1CCN(C(=O)c2ccco2)CC1` [CBK144446], the viability at 28.5 h, 10 µM was 86%.

Turning to `Nc1ccc(S(=O)(=O)NC2(C(F)(F)F)NC(=O)N(c3ccccc3Cl)C2=O)cc1` (stereo not drawn) [CBK268003], the viability at 28.5 h, 10 µM worked out at 107%.

As to `CC1=C(C)C(=NNC(N)=S)C(C)=C(C)C1=NNC(N)=S` [CBK261262], the viability at 28.5 h, 10 µM was 91.9%.

For the compound `Cn1ncc2c(NCCCN3CCCC(CO)C3)nc(C(C)(C)C)nc21` (stereo not drawn) [CBK307082], the viability at 28.5 h, 10 µM was found to be 93%.

Take `N#Cc1cnc(NCc2ccccc2)nc1N` [CBK015764]: the viability at 28.5 h, 10 µM is 90%.

`CCc1ccc(CC)c(S(=O)(=O)NC(CC(=O)O)c2ccccc2)c1` (stereo not drawn) [CBK266208]: the viability at 28.5 h, 10 µM is 102%.

As for `O=C(Nc1cccnc1)c1cccc(S(=O)(=O)N2CCCC2)c1` [CBK269846], the viability at 28.5 h, 10 µM came to 93.3%.

Take `N#Cc1cccc(CN2CCC(Cc3ccccc3)CC2)c1` [CBK126380]: the viability at 28.5 h, 10 µM came to 87.1%.

In the case of `CN(c1ccccc1C(N)=O)S(=O)(=O)c1ccc(S(=O)(=O)C(F)F)cc1` [CBK298289], the viability at 28.5 h, 10 µM is 88.3%.

With `CN1CCN(CC(=O)N2N=C(c3c(-c4ccccc4)c4cc(Cl)ccc4[nH]c3=O)CC2c2ccccc2)CC1` (stereo not drawn) [CBK267545], the viability at 28.5 h, 10 µM turned out to be 88.9%.

For `O=C(c1ccc2nc[nH]c2c1)N1Cc2ccccc2C1` [CBK200322], the viability at 28.5 h, 10 µM was 103%.

Turning to `COc1cc(/C=C/C(=O)O)cc(S(=O)(=O)N2CCc3ccccc3C2)c1OC` [CBK264406], the viability at 28.5 h, 10 µM stood at 96.8%.

For the compound `Cc1cc(C)c2c(N)nc(N)nc2n1` [CBK025968], the viability at 28.5 h, 10 µM was 105%.

As to `Cc1cc(C)n(Cc2cc(C(=O)NCC(C)Oc3cccnc3)n[nH]2)n1` (stereo not drawn) [CBK307609], the viability at 28.5 h, 10 µM came to 85.9%.

For the compound `Cc1ccc(CN2CC[C@@H]3[C@H](C2)[C@@H](c2ccsc2)CN3C(=O)c2ccccc2F)cc1` [CBK285658], the viability at 28.5 h, 10 µM amounted to 96.5%.

On to `O=C(CN1CCN(CCN2C(=O)c3cccc4cccc(c34)C2=O)CC1)c1ccc(F)cc1` [CBK263414B], for which the viability at 28.5 h, 10 µM came to 94.5%.

As for `CCCC/C=C/c1cnc(N)c(-c2ccc(C(=O)NCCO)cc2)n1` [CBK064141], the viability at 28.5 h, 10 µM was found to be 106%.

`Cc1ccc(C(=O)N2CN(C(=O)CNC(C)(C)C)CC2(C)C)cc1` [CBK089575C]: the viability at 28.5 h, 10 µM worked out at 88.6%.

As to `COc1cccc(COc2cncc(Cl)n2)c1OC` [CBK176057], the viability at 28.5 h, 10 µM came to 86.3%.

As to `Cc1ccc2[nH]c(CN3CCC(O)C3)cc(=O)c2c1` (stereo not drawn) [CBK307690], the viability at 28.5 h, 10 µM is 91.5%.

For `CC(C)n1nccc1C(=O)NCC(c1ccccc1F)N1CCCC1` (stereo not drawn) [CBK283032], the viability at 28.5 h, 10 µM amounted to 94.1%.

With `CN1C2C=C(N(CCc3ccccc3)C(=O)c3ccc(-c4ccccc4)cc3)CC1CC2` (stereo not drawn) [CBK262596C], the viability at 28.5 h, 10 µM was found to be 104%.

Consider `COc1cc(CNCc2cccs2)cc(Cl)c1OCC(N)=O` [CBK270237C], for which the viability at 28.5 h, 10 µM came to 87.6%.

Take `COc1nccnc1OC1CCN(CC(N)=O)CC1` [CBK084248]: the viability at 28.5 h, 10 µM is 86.7%.

For `N#Cc1c(NC(=O)c2cc(S(=O)(=O)N3CCOCC3)c(Cl)cc2Cl)sc2c1CCCC2` [CBK263204], the viability at 28.5 h, 10 µM turned out to be 95.7%.

Regarding `N=c1n(CC(=O)c2ccc(Br)s2)c2ccccc2n1Cc1ccccc1` [CBK262482B], the viability at 28.5 h, 10 µM was 91.4%.

Consider `O=C(Oc1cccc(-c2cnc3ccccc3n2)c1)c1cccc(S(=O)(=O)N2CCOCC2)c1` [CBK262096], for which the viability at 28.5 h, 10 µM is 89.3%.

For `COC(=O)COc1ccccc1/C=C1\SC(c2ccc(C)cc2)=NC1=O` [CBK067741], the viability at 28.5 h, 10 µM worked out at 92.6%.

`COC(=O)C(C)CN1CC2CCC(CC2)C1` (stereo not drawn) [CBK022785C]: the viability at 28.5 h, 10 µM was determined as 106%.

Regarding `CN(Cc1ccccc1)C(=O)c1cc(=O)[nH]c2ccccc12` [CBK287971], the viability at 28.5 h, 10 µM turned out to be 92.8%.

On to `Cc1ccc(-c2csc(NC(=O)c3c(C)noc3C)c2C(=O)NC2CC2)cc1` [CBK268141], for which the viability at 28.5 h, 10 µM was 95.1%.

In the case of `CC(Oc1cccc2cccnc12)C(=O)N/N=C/c1ccc(-c2ccc(Br)cc2)o1` (stereo not drawn) [CBK262838], the viability at 28.5 h, 10 µM worked out at 93.4%.

Consider `COc1ccc(-c2cn(C[C@H]3CC4CCN3C[C@@H]4C(=O)NC3CCCCC3)nn2)cc1` (stereo partly drawn) [CBK289084], for which the viability at 28.5 h, 10 µM was 107%.

For `O=C(O)C(Cc1ccccc1)N1C(=O)/C(=C/C(Cl)=C/c2ccc([N+](=O)[O-])cc2)SC1=S` (stereo not drawn) [CBK263523], the viability at 28.5 h, 10 µM stood at 95.4%.

For the compound `COc1cc2c(cc1OC)CN(C(=O)CSc1nc3c(c(-c4cccs4)c1C#N)CN(C)CC3)CC2` [CBK267462], the viability at 28.5 h, 10 µM was 91.3%.

With `CC(=O)c1ccccc1NC(=O)CSCC(=O)O` [CBK057752], the viability at 28.5 h, 10 µM is 92.2%.

Regarding `Cc1cc2cccc(NC(=O)NCc3cncn3CC(C)C)c2o1` [CBK306715], the viability at 28.5 h, 10 µM came out at 101%.

Take `Cc1nc(C2CN(Cc3c(Cl)ccc4cccnc34)CCO2)no1` (stereo not drawn) [CBK305317]: the viability at 28.5 h, 10 µM came to 82%.

`COC(=O)c1c(-c2ccncc2)csc1NC(=O)Cc1ccc([N+](=O)[O-])cc1` [CBK268119]: the viability at 28.5 h, 10 µM is 90.1%.

Consider `O=C(O)c1cc(-c2ccc(/C=C3\NC(=O)N(Cc4ccccc4)C3=O)o2)ccc1Cl` [CBK078117], for which the viability at 28.5 h, 10 µM stood at 98.9%.

Consider `CC(NS(=O)(=O)c1cc(Cl)ccc1Cl)C(=O)Nc1ccccc1` (stereo not drawn) [CBK267871], for which the viability at 28.5 h, 10 µM came out at 110%.

For `CCCCOC(=O)c1ccc(NC(=O)c2cc(-c3ccco3)nc3c2c(C)nn3C)cc1` [CBK295313], the viability at 28.5 h, 10 µM came to 103%.

Take `CC(=O)NCC(=O)N1CCC2(C/C=C/CNC(=O)c3ccccc3OCCNC2=O)CC1` [CBK292006]: the viability at 28.5 h, 10 µM amounted to 97.4%.

With `CC(C)C(=O)Nc1cc2cccnc2nc1-c1ccccc1` [CBK073647], the viability at 28.5 h, 10 µM worked out at 94.7%.

As for `COc1ccc(OC)c(S(=O)(=O)N2CC[C@H]3CC(=O)N(CCN(C)C)CC[C@H]3C2)c1` [CBK288788], the viability at 28.5 h, 10 µM was 104%.

For the compound `Cc1c(C(C)NCC2CCCC2O)cnn1-c1ccc(C#N)cc1` (stereo not drawn) [CBK304019], the viability at 28.5 h, 10 µM turned out to be 94.5%.

In the case of `Oc1cc(C(F)(F)F)nc(CCc2ccc(Cl)cc2)n1` [CBK003678], the viability at 28.5 h, 10 µM was 107%.

`Cc1cccc(C(=O)NC(=S)Nc2cccc(C(=O)O)c2)c1` [CBK264987]: the viability at 28.5 h, 10 µM turned out to be 121%.

On to `CC(NC(=O)Cc1cccc(F)c1)c1nnc2n1CCCCC2` (stereo not drawn) [CBK305975], for which the viability at 28.5 h, 10 µM is 85.8%.

`O=C(O)Cc1c[nH]c2ccccc12` [CBK228897G]: the viability at 28.5 h, 10 µM amounted to 102%.

Turning to `Cc1cc(NC(=O)CC2CCCCC2)nc2c1c(=O)oc1ccccc12` [CBK291151], the viability at 28.5 h, 10 µM turned out to be 90.6%.

Consider `Cc1oc(C2CC2)cc1C(=O)N1CCC(c2ccncc2)CC1` [CBK283514], for which the viability at 28.5 h, 10 µM was 95.2%.

Regarding `COc1ccc(-c2cn(-c3ccc(OC(F)(F)F)cc3)nn2)cc1` [CBK113024], the viability at 28.5 h, 10 µM was found to be 110%.

In the case of `CC(C)COC(=O)N1CCN(C2CCc3cc(-c4ccc([S+](C)[O-])cc4)ccc3C2)CC1` (stereo not drawn) [CBK173425], the viability at 28.5 h, 10 µM worked out at 89.8%.

`CC(C)(C)C1CCC(OC(=O)CCC(=O)O)CC1` (stereo not drawn) [CBK026882]: the viability at 28.5 h, 10 µM was 105%.

As to `Cc1ccc(N2C(=O)N[C@@H]3CCN(S(=O)(=O)c4ccccc4)[C@@H]3C2=O)cc1` [CBK289285], the viability at 28.5 h, 10 µM amounted to 107%.

As for `O=C(C1CCCC1)N1CC(n2nc(-c3ccccc3)ccc2=O)C1` [CBK284617], the viability at 28.5 h, 10 µM is 93.9%.

For `Cn1c(-c2ccc(CN3CCCC3)cc2)nc2onc(-c3ccccc3)c2c1=O` [CBK039188C], the viability at 28.5 h, 10 µM came to 95.2%.
